US5872144A, “4-aminoethoxyindazole derivatives” (American Home Products Corporation, priority 1998, dated 1999)

Legend:
dopamine D2 receptor = experiment: Intrinsic activity at the dopamine D2 receptor, ratio LowAg/HighAg; assay type: binding; conditions: D2 Spiper IC50 / D2 Quin. IC50 (LowAg/HighAg)
Description: Efforts to induce antipsychotic activity with dopamine autoreceptor agonists have been successful (Dorsini et al., Adv. Biochem. […] et al., Science, 200, 567-568, 1975; and […] et al., Psychiatry, 398-402, 1986). […] Pharm., 42, 432-438, (1993)]. Intrinsic activity is predicted using the ratio of the "low-affinity agonist" (LowAg) state of the receptor and the "high-affinity agonist" ([…]) state of the receptor, […]. These ratios correlate with the agonist, partial agonist, and antagonist activities of a given compound, which activities characterize a compounds ability to elicit an antipsychotic effect. […] Activation of the dopamine autoreceptors results in reduced neuronal firing a well as inhibition of dopamine synthesis and release and therefore provide a means of controlling hyperactivity of the dopaminergic systems. The compounds of this invention were also found to have high intrinsic activity and therefore they can behave as the natural neurotransmitter i.e. as full agonists. […] Affinity for the dopamine autoreceptor was established by a modification of the standard experimental test procedure of Seemen and Schaus, European Journal of Pharmacology 203, 105-109, 1991, wherein homogenized rat striatal brain tissue is incubated with ^3 H-quinpirole (Quin.) and various concentrations of test compound, filtered and washed and counted in a Betaplate scintillation counter. […]

dopamine D-2 receptor = molecular target: T1, dopamine D-2 receptor (Rattus norvegicus, UniProt P61169); experiment: 3H-spiroperidol (D2 Spiper.) binding, homogenized limbic brain tissue
T1 construct: from tissue; host or cells: limbic brain tissue, homogenate
T1 sequence (P61169 whole entry): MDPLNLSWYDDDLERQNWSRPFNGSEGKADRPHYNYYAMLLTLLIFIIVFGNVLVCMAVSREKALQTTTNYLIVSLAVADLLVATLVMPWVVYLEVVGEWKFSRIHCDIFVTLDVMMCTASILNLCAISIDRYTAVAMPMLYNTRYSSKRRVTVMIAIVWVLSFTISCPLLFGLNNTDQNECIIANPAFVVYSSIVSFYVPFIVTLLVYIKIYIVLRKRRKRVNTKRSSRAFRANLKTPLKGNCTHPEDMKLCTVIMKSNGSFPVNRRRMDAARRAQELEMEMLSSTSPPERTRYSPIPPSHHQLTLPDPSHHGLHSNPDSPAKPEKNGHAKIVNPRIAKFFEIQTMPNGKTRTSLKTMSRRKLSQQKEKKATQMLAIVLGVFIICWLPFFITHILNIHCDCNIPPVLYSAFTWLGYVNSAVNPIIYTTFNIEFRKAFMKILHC
Description: High affinity for the dopamine D-2 receptor was established by the standard experimental test procedure of Fields, et al., Brain Res., 136, 578 (1977) and Yamamura et al., eds., Neurotransmitter Receptor Binding, Raven Press, N.Y. (1978) wherein homogenized limbic brain tissue is incubated with ^3 H-spiroperidol (Spiper.) and various concentrations of test compound, filtered and washed and shaken with Hydrofluor scintillation cocktail (National Diagnostics) and counted in a Packard 460 CD scintillation counter.

[1] = molecular target: T2, dopamine autoreceptor (D2) (Rattus norvegicus, UniProt P61169); experiment: 3H-quinpirole (D2 Quin.) binding, homogenized rat striatal brain tissue, affinity for dopamine autoreceptor
T2 construct: homogenized rat striatal brain tissue; from tissue; host or cells: rat striatum, homogenate
T2 sequence (P61169 whole entry): as above
Description: Affinity for the dopamine autoreceptor was established by a modification of the standard experimental test procedure of Seemen and Schaus, European Journal of Pharmacology 203, 105-109, 1991, wherein homogenized rat striatal brain tissue is incubated with ^3 H-quinpirole (Quin.) and various concentrations of test compound, filtered and washed and counted in a Betaplate scintillation counter.

Compound | Ratio (dopamine D2 receptor) | IC50 (dopamine D-2 receptor) [nM] | IC50 [1] [nM]
c1ccc(CNCCOc2cccc3[nH]ncc23)cc1 [Example 1, Benzyl-[2-(1H-indazo-4-yloxy)-ethyl]-amine] | 151 | 333 | 2.23
c1csc(CNCCOc2cccc3[nH]ncc23)c1 [Example 2, [2-(1H-Indazol-4-yloxy)-ethyl]-thiophen-2-ylmethyl-amine] | 254 | 1090 | 4.3
c1cc(OCCNCc2ccsc2)c2cn[nH]c2c1 [Example 3, [2-(1H-Indazol-4-yloxy)-ethyl]-thiophen-3-ylmethyl-amine] | – | – | 2.78
